Legend:
Neutrophil elastase = molecular target: T1, Neutrophil elastase (Homo sapiens, UniProt P08246); test: Inhibition of human neutrophil elastase using MeOSuc-Ala-Ala-Pro-Val-pNA as substrate preincubated for 10 mins followed by substrate addition measured after 10 mins by fluorescence assay
T1 sequence (P08246 whole entry): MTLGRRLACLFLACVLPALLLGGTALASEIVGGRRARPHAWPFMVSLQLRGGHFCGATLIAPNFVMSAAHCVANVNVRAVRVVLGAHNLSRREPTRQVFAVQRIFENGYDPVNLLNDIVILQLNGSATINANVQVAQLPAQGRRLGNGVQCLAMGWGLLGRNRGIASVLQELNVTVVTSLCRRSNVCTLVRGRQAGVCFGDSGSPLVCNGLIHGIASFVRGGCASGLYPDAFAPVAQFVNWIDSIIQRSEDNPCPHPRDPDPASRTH

Cathepsin G = molecular target: T2, Cathepsin G (Homo sapiens, UniProt P08311); test: Inhibition of human neutrophil cathepsin G using Boc-Gln-Ala-Arg-MCA as substrate preincubated for 10 mins followed by substrate addition measured after 10 mins by fluorescence assay
T2 sequence (P08311 whole entry): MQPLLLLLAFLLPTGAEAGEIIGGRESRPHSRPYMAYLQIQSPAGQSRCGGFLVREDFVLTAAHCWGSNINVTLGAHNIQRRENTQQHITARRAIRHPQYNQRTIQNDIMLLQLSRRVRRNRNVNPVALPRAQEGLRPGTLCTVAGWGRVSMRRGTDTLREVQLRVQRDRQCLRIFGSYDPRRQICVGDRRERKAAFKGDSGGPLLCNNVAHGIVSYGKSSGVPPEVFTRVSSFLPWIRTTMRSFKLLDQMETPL

[1] = Inhibition of bovine pancreatic alpha-chymotrypsin using Suc-Ala-Ala-Pro-Phe-MCA as substrate preincubated for 10 mins followed by substrate addition measured after 10 mins by fluorescence assay; parameters: species or system Bos taurus

| SMILES | IC50 (Neutrophil elastase) [µM] | IC50 (Cathepsin G) [µM] | IC50 [1] [µM] |
| --- | --- | --- | --- |
| CC[C@@H](NC(=O)N1CC(=O)NCC(Cc2cc(Cl)ccc2OC)C1=O)C(=O)Nc1cccc(N)c1 (some centres undefined) | > 10 | > 10 | > 10 |
| CC[C@@H](NC(=O)N1CC(=O)NC[C@@H](Cc2cc(Cl)ccc2OC)C1=O)c1ccc(C(=O)O)c(N)c1 | 100 | – | > 100 |
| CC[C@@H](NC(=O)N1CC(=O)NCC(Cc2cc(Cl)ccc2OC)C1=O)C(=O)Nc1cccc(C(=O)O)c1 (some centres undefined) | > 10 | 8.5 | > 10 |
| CC[C@@H](NC(=O)N1CC(=O)NCC(Cc2cc(Cl)ccc2OC)C1=O)C(=O)Nc1nnn[nH]1 (some centres undefined) | > 10 | > 10 | > 10 |
| CC[C@@H](NC(=O)N1CC(=O)NC[C@@H](Cc2cc(Cl)ccc2OC)C1=O)c1cc(C(=O)O)co1 | > 100 | 7.8 | > 88 |

From ChEMBL document CHEMBL2396642, “Discovery of novel series of 6-benzyl substituted 4-aminocarbonyl-1,4-diazepane-2,5-diones as human chymase inhibitors using structure-based drug design” (Bioorg Med Chem, 2013)
